Results on six compounds are retold here after ChEMBL document CHEMBL1142199, “Caenorhabditis elegans as a model to determine fitness of antibiotic-resistant Salmonella enterica serovar typhimurium” (2007).

Assay type in all cases: functional, Salmonella enterica subsp. enterica serovar Typhimurium
For assay [1], the system named is Salmonella typhimurium. Description: Antimicrobial activity against Salmonella enterica serovar Typhimurium DA8340 in Caenorhabditis elegans.
Assay [2] relates to Salmonella typhimurium. Description: Antimicrobial activity against Salmonella enterica serovar Typhimurium DA8325 in Caenorhabditis elegans.
Assay [3] relates to Salmonella typhimurium. As to the kind of experiment: Antimicrobial activity against Salmonella enterica serovar Typhimurium DA8326 in Caenorhabditis elegans.
Assay [4] relates to Salmonella typhimurium. Description: Antimicrobial activity against Salmonella enterica serovar Typhimurium JB393 in Caenorhabditis elegans.
Assay [5] has as its system Salmonella typhimurium. Description: Antimicrobial activity against Salmonella enterica serovar Typhimurium JB1855 in Caenorhabditis elegans.
The test system of assay [6] is Salmonella typhimurium. Description: Antimicrobial activity against Salmonella enterica serovar Typhimurium JB1850 in Caenorhabditis elegans.
Assay [7] relates to Salmonella typhimurium. Description: Antimicrobial activity against Salmonella enterica serovar Typhimurium SMP972 in Caenorhabditis elegans.
The subject of assay [8] is Salmonella typhimurium. Description: Antimicrobial activity against Salmonella enterica serovar Typhimurium SMP973 in Caenorhabditis elegans.
Assay [9] has as its system Salmonella typhimurium. As to the kind of experiment: Antimicrobial activity against Salmonella enterica serovar Typhimurium SMP807 in Caenorhabditis elegans.
In assay [10] the test system is Salmonella typhimurium. Description: Antimicrobial activity against Salmonella enterica serovar Typhimurium SMP816 in Caenorhabditis elegans.
The subject of assay [11] is Salmonella typhimurium. Description: Antimicrobial activity against Salmonella enterica serovar Typhimurium JB127 in Caenorhabditis elegans.

In brackets after ≈: the same amount, converted by molar mass.

One may read the MIC as the smallest concentration in the dilution series that meets the test's criterion for growth inhibition. Read a low MIC as greater potency.

On to `CCCCC[C@H](CC(=O)NO)C(=O)N[C@H](C(=O)N1CCC[C@H]1CO)C(C)C` [ACTINONIN], for which the MIC against Salmonella typhimurium [1], with Salmonella typhimurium [2] and against Salmonella typhimurium [3] was over 1020 µg/mL in each case.

`CC(=O)O[C@H]1C[C@@]2(C)[C@@H](C[C@@H](O)[C@H]3[C@@]4(C)CC[C@@H](O)[C@@H](C)[C@@H]4CC[C@@]32C)/C1=C(\CCC=C(C)C)C(=O)O` [FUSIDIC ACID] came in with an MIC in the assay on Salmonella typhimurium [4] of 2400 µg/mL (≈ 4640 µM).

With `C/C(=C\C(=O)OCCCCCCCCC(=O)O)C[C@@H]1OC[C@H](C[C@@H]2O[C@H]2[C@@H](C)[C@H](C)O)[C@@H](O)[C@H]1O` [MUPIROCIN], the MIC against Salmonella typhimurium [5] and in the assay with Salmonella typhimurium [6] was over 1020 µg/mL throughout.

For `CCn1cc(C(=O)O)c(=O)c2ccc(C)nc21` [NALIDIXIC ACID], the results for the minimum inhibitory concentration (MIC) with Salmonella typhimurium [7] and with Salmonella typhimurium [8] were 64 µg/mL (≈ 276 µM) and over 256 µg/mL, respectively.

Take `CO[C@H]1/C=C/O[C@@]2(C)Oc3c(C)c(O)c4c(O)c(c(/C=N/N5CCN(C)CC5)c(O)c4c3C2=O)NC(=O)/C(C)=C\C=C\[C@H](C)[C@H](O)[C@@H](C)[C@@H](O)[C@@H](C)[C@H](OC(C)=O)[C@@H]1C` [RIFAMPIN]: the MIC in the assay with Salmonella typhimurium [9] and against Salmonella typhimurium [10] was over 256 µg/mL each time.

With `CN[C@@H]1[C@H](O[C@H]2[C@H](O[C@H]3[C@H](O)[C@@H](O)[C@H](N=C(N)N)[C@@H](O)[C@@H]3N=C(N)N)O[C@@H](C)[C@]2(O)C=O)O[C@@H](CO)[C@H](O)[C@H]1O` [STREPTOMYCIN], in the assay with Salmonella typhimurium [11], the MIC is over 1020 µg/mL.
